This is an account of results in patent publication US8530648B2, “Diaza-spiro[5.5]undecanes” (Novartis AG, priority 2009, dated 2013).

In experiment [1] the target is T1, hOx1R (Homo sapiens (Human), UniProt O43613). Briefly: Calcium accumulation in cells (FLIPR), hOx1R. The experiment is classed as cell-based. The conditions noted are these: for Ki: inhibition of orexin A induced calcium accumulation, Cheng and Prusoff correction. A digest of the protocol: (§1)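 Cells expressing human orexin 1 or 2 receptor, serum-deprived overnight, loaded with Fluo-4-AM (2 μM) plus 0.1 mM probenecid, pH 7.4 HEPES buffer with 1% BSA.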

The target of experiment [2] is T2, hOx2R (Homo sapiens (Human), UniProt O43614). Briefly: Calcium accumulation in cells (FLIPR), hOx2R. It counts as cell-based. The following applies: inhibition of orexin A induced calcium accumulation, Cheng and Prusoff correction. Summed up: as §1
Experiment [3] concerns the target T1, hOx1R. Briefly: Radioligand binding assay, [125I]orexin A, hOx1R. The following applies: radioligand [125I]orexin A, competition. As for the experimental part:
(§2) For crude cell membrane preparations, cells (CHO, Chinese hamster ovary or HEK, human embryonic kidney) expressing human orexin 1 or human orexin 2 receptors, were washed with HEPES (10 mM, pH 7.5), scraped off the culture plates with the same buffer, and centrifuged at 4° C. for 5 min at 2500×g. The cell pellet was either stored at −80° C. or used directly. Before the experiments, cell membranes were re-suspended in binding assay buffer (10 mM HEPES, 0.5% (w/v) bovine serum albumin, pH 7.5) by homogenisation with a Polytron homogeniser at 50 Hz for 20 s. Cell membranes were also used as made available by commercial providers.
(§3) In initial saturation experiments (to calculate Bmax), cell homogenates (150 μl) were incubated with 25-300 pM of the radioligand ([^125I]orexin A, 50 μl), 8 concentrations in triplicates in the presence or absence Orexin A (1 μM, 50 μl) to define non specific binding. Bound radioactivity was measured, and data were analysed with the program XLFIT or Graphpad Prism. Protein concentration was determined according to the Bradford/BioRad Protein Assay Kit.
(§4) In competition experiments, cell homogenates (150 μl) were incubated in assay buffer (10 mM HEPES, pH 7.5, 0.5% (w/v) bovine serum albumin, 5 mM MgCl2, 1 mM CaCl2, and tween 0.05%) for 1 h at room temperature with about 100 pM of the radioligand ([^125I]orexin A, 2100 Ci/mmole, 50 μl), and with various concentrations of compounds of the invention (50 μl) in triplicates; non-specific binding was determined in the presence of Orexin A (1 μM). Reactions were terminated by vacuum filtration, 3 washes of ice cold wash buffer (Tris-HCl pH 7.4/10 mM, with NaCl 154 mM).

Experiment [4] addresses T2, hOx2R. Briefly: Radioligand binding assay, [125I]orexin A, hOx2R. The conditions noted are these: radioligand [125I]orexin A, competition. As for the experimental part: as §2, §3, §4

T1 sequence (O43613 whole entry): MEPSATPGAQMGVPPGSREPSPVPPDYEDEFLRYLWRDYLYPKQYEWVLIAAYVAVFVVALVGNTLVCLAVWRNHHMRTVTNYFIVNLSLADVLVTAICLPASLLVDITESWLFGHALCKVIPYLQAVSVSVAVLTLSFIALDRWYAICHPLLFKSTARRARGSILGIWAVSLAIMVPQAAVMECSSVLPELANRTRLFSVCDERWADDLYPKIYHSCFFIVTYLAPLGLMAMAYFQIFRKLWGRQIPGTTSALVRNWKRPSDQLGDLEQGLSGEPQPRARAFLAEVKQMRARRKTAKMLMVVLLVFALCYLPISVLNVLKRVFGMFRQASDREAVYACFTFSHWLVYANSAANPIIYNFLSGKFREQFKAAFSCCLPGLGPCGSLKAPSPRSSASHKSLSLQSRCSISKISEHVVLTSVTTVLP
T2 sequence (O43614 whole entry): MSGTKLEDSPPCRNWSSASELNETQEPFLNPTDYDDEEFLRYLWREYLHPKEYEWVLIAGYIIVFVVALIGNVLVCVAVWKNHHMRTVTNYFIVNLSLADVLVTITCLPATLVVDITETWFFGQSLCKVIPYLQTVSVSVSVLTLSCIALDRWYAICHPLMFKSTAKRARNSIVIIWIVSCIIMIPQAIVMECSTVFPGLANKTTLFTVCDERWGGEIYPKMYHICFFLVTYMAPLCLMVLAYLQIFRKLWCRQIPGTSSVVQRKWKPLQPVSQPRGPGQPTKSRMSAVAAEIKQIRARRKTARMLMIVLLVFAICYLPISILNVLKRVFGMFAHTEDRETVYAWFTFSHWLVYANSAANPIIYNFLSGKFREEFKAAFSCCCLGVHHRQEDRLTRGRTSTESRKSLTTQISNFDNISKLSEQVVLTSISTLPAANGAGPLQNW

Take `O=C1N(Cc2cccc3ccccc23)CCCC12CCN(c1cnc3ccccc3n1)CC2` [Example 2, 2-(naphthalen-1-ylmethyl)-9-(quinoxalin-2-yl)-2,9-diazaspiro[5.5]undecan-1-one]: the results for the Ki on hOx1R [1] and on hOx2R [2] were 482 nM and 30 nM, respectively. Further, the dissociation constant (Kd) (usually the free concentration of one partner at which half of the binding sites on the other are occupied at equilibrium, for simple one-to-one binding) came out at 360 nM on hOx1R [3] and 34 nM on hOx2R [4].
As to `O=C1N(Cc2cccc3[nH]ccc23)CCCC12CCN(c1cnc3ccccc3n1)CC2` [Example 3, 2-((1H-indol-4-yl)methyl)-9-(quinoxalin-2-yl)-2,9-diazaspiro[5.5]undecan-1-one], the Ki (commonly a measure of affinity in units of concentration, obtained from inhibition or displacement) at hOx1R [1] came to 474 nM; at hOx2R [2], 63 nM. Also, the Kd on hOx1R [3] is 630 nM; on hOx2R [4], 130 nM.
With `O=C1N(Cc2cccc3c2OCCO3)CCCC12CCN(c1cnc3ccccc3n1)CC2` [Example 4, 2-((2,3-dihydrobenzo[b][1,4]dioxin-5-yl)methyl)-9-(quinoxalin-2-yl)-2,9-diazaspiro[5.5]undecan-1-one], the Ki on hOx1R [1] was determined as 1360 nM; at hOx2R [2] it was 46 nM. The Kd at hOx1R [3] was 2060 nM; on hOx2R [4] it was 121 nM.
For the compound `O=C1N(Cc2cccc(-c3cccnc3)c2)CCCC12CCN(c1cnc3ccccc3n1)CC2` [Example 5, 2-(3-(pyridin-3-yl)benzyl)-9-(quinoxalin-2-yl)-2,9-diazaspiro[5.5]undecan-1-one], the Ki on hOx1R [1] stood at 83 nM; on hOx2R [2], 22 nM. Besides, the results for the Kd at hOx1R [3] and on hOx2R [4] were 426 nM and 98 nM, respectively.
As to `O=C1N(Cc2ccccc2)CCCC12CCN(c1cnc3ccccc3n1)CC2` [Example 6, 2-benzyl-9-(quinoxalin-2-yl)-2,9-diazaspiro[5.5]undecan-1-one], the values for the Ki on hOx1R [1] and at hOx2R [2] were 1480 nM and 371 nM, respectively. Moreover, the Kd on hOx1R [3] is 1310 nM; on hOx2R [4], 300 nM.
As for `O=C1N(Cc2ccc3ccccc3c2)CCCC12CCN(c1cnc3ccccc3n1)CC2` [Example 7, 2-(naphthalen-2-ylmethyl)-9-(quinoxalin-2-yl)-2,9-diazaspiro[5.5]undecan-1-one], the Kd on hOx1R [3] is > 10000 nM; on hOx2R [4], 9870 nM.
In the case of `O=C1N(Cc2cccc3c2OCO3)CCCC12CCN(c1cnc3ccccc3n1)CC2` [Example 9, 2-(benzo[d][1,3]dioxol-4-ylmethyl)-9-(quinoxalin-2-yl)-2,9-diazaspiro[5.5]undecan-1-one], the figures for the Ki at hOx1R [1] and on hOx2R [2] were 904 nM and 35 nM, respectively. For the same compound, the Kd is 2350 nM on hOx1R [3] and 413 nM on hOx2R [4].
As to `O=C1N(Cc2ccccc2)CCCC12CCN(c1nc3ccccc3[nH]1)CC2` [Example 10, 9-(1H-benzo[d]imidazol-2-yl)-2-benzyl-2,9-diazaspiro[5.5]undecan-1-one], at hOx1R [1] (measured at a concentration of 10 μM of compound), the inhibition (as a rule, the drop in the measured response relative to a control, in per cent) at 10 µM was found to be 0%. Further, at hOx2R [2], the Ki was 1070 nM. The Kd stood at 3360 nM on hOx1R [3] and 439 nM on hOx2R [4].
Consider `Cn1c(N2CCC3(CCCN(Cc4cccc5ccccc45)C3=O)CC2)nc2ccccc21` [Example 12, 9-(1-methyl-1H-benzo[d]imidazol-2-yl)-2-(naphthalen-1-ylmethyl)-2,9-diazaspiro[5.5]undecan-1-one], for which the Kd was > 10000 nM on hOx1R [3] and 6100 nM on hOx2R [4].
On to `Cc1cc2c(CN3CCCC4(CCN(c5cnc6ccccc6n5)CC4)C3=O)cccc2[nH]1` [Example 13, 2-((2-methyl-1H-indol-4-yl)methyl)-9-(quinoxalin-2-yl)-2,9-diazaspiro[5.5]undecan-1-one], for which the Ki at hOx1R [1] came to 365 nM; on hOx2R [2] it was 35 nM. For the same compound, the Kd on hOx1R [3] amounted to 776 nM; at hOx2R [4] it was 62 nM.
The like results for `O=C1N(Cc2cccc(C(F)(F)F)c2)CCCC12CCN(c1cnc3ccccc3n1)CC2` [Example 14, 9-(quinoxalin-2-yl)-2-(3-(trifluoromethyl)benzyl)-2,9-diazaspiro[5.5]undecan-1-one] were, in that order, 948 nM, 112 nM, 1380 nM and 211 nM.
Consider `Cc1cccc(CN2CCCC3(CCN(c4cnc5ccccc5n4)CC3)C2=O)c1` [Example 15, 2-(3-methylbenzyl)-9-(quinoxalin-2-yl)-2,9-diazaspiro[5.5]undecan-1-one], for which the Ki at hOx1R [1] came to 1380 nM; on hOx2R [2] it was 155 nM. The Kd on hOx1R [3] came out at 1400 nM; at hOx2R [4], 288 nM.
As to `O=C1N(Cc2cccc3cccnc23)CCCC12CCN(c1cnc3ccccc3n1)CC2` [Example 21, 2-(quinolin-8-ylmethyl)-9-(quinoxalin-2-yl)-2,9-diazaspiro[5.5]undecan-1-one], the values for the Ki at hOx1R [1] and at hOx2R [2] were 1760 nM and 213 nM, respectively. In addition, the dissociation constant (Kd) on hOx1R [3] amounted to 3280 nM; on hOx2R [4], 211 nM.
In the same order, the values of `O=C1N(Cc2cccc(-c3ccccc3)c2)CCCC12CCN(c1cnc3ccccc3n1)CC2` [Example 22, 2-(biphenyl-3-ylmethyl)-9-(quinoxalin-2-yl)-2,9-diazaspiro[5.5]undecan-1-one] are 518 nM, 51 nM, 1320 nM and 59 nM.
The like results for `O=C1N(Cc2ccccc2C(F)(F)F)CCCC12CCN(c1cnc3ccccc3n1)CC2` [Example 23, 9-(quinoxalin-2-yl)-2-(2-(trifluoromethyl)benzyl)-2,9-diazaspiro[5.5]undecan-1-one] were, in that order, 2740 nM, 280 nM, 4480 nM and 1090 nM.
As to `O=C1N(Cc2ccc(C(F)(F)F)cc2)CCCC12CCN(c1cnc3ccccc3n1)CC2` [Example 24, 9-(quinoxalin-2-yl)-2-(4-(trifluoromethyl)benzyl)-2,9-diazaspiro[5.5]undecan-1-one], the Kd on hOx1R [3] is > 10000 nM; on hOx2R [4] it was 5240 nM.
Regarding `O=C1N(Cc2ccc3c(c2)OCCO3)CCCC12CCN(c1cnc3ccccc3n1)CC2` [Example 25, 2-((2,3-dihydrobenzo[b][1,4]dioxin-6-yl)methyl)-9-(quinoxalin-2-yl)-2,9-diazaspiro[5.5]undecan-1-one], the Kd on hOx1R [3] came to 5250 nM; on hOx2R [4] it was 3210 nM.
With `O=C1N(Cc2cccc(Cl)c2)CCCC12CCN(c1cnc3ccccc3n1)CC2` [Example 27, 2-(3-chlorobenzyl)-9-(quinoxalin-2-yl)-2,9-diazaspiro[5.5]undecan-1-one], the inhibition constant (Ki) was 740 nM at hOx1R [1] and 84 nM on hOx2R [2]. Besides, the Kd at hOx1R [3] was 702 nM; on hOx2R [4], 169 nM.
In the same order, the values of `Cc1onc(-c2ccccc2)c1CN1CCCC2(CCN(c3cnc4ccccc4n3)CC2)C1=O` [Example 34, 2-((5-methyl-3-phenylisoxazol-4-yl)methyl)-9-(quinoxalin-2-yl)-2,9-diazaspiro[5.5]undecan-1-one] are 1560 nM, 88 nM, 4320 nM and 181 nM.
As to `O=C1CCCC2(CCN(c3cnc4ccccc4n3)CC2)N1Cc1cccc2[nH]ccc12` [Example 38, 1-((1H-indol-4-yl)methyl)-9-(Quinoxalin-2-yl)-1,9-diazaspiro[5.5]undecan-2-one], the Ki at hOx1R [1] stood at 13 nM; on hOx2R [2], 1 nM. In addition, the Kd was found to be 17 nM on hOx1R [3] and 7 nM on hOx2R [4].
In the same order, the values of `Cc1ccc(C)c(CN2C(=O)CCCC23CCN(c2cnc4ccccc4n2)CC3)c1` [Example 41, 1-(2,5-dimethylbenzyl)-9-(quinoxalin-2-yl)-1,9-diazaspiro[5.5]undecan-2-one] are 77 nM, 16 nM, 100 nM and 36 nM.
Consider `O=C1CCCC2(CCN(c3nc4ccccc4o3)CC2)N1Cc1cccc2[nH]ccc12` [Example 42, 1-((1H-indol-4-yl)methyl)-9-(benzo[d]oxazol-2-yl)-1,9-diazaspiro[5.5]undecan-2-one], for which the Ki on hOx1R [1] was determined as 20 nM; at hOx2R [2] it was 3 nM. The Kd came to 36 nM on hOx1R [3] and 12 nM at hOx2R [4].
Regarding `O=C1N(Cc2cccc(-c3ccccn3)c2)CCCC12CCN(c1cnc3ccccc3n1)CC2` [Example 54, 2-(3-(pyridin-2-yl)benzyl)-9-(quinoxalin-2-yl)-2,9-diazaspiro[5.5]undecan-1-one], the Ki at hOx1R [1] was determined as 420 nM; at hOx2R [2], 47 nM. The Kd at hOx1R [3] came to 634 nM; at hOx2R [4], 175 nM.
For the compound `O=C1N(Cc2c[nH]c3ncccc23)CCCC12CCN(c1cnc3ccccc3n1)CC2` [Example 57, 2-((1H-pyrrolo[2,3-b]pyridin-3-yl)methyl)-9-(quinoxalin-2-yl)-2,9-diazaspiro[5.5]undecan-1-one], the figures for the Ki at hOx1R [1] and at hOx2R [2] were 1030 nM and 92 nM, respectively. In addition, the Kd was 959 nM at hOx1R [3] and 159 nM at hOx2R [4].
